Results reported in patent publication US12534444B2, “Treatment of cancer/inhibition of metastasis” (Celex Oncology Innovations Limited, priority 2010, dated 2026).

Key:
[1] = tested on: MDA-MB-231 cells; assay: Transverse migration assay (Transwell); assay type: cell-based, human
Description: This assay was used to represent the ability of cells to migrate as they intra/extravasate. […] The insert 602 has a migration filter membrane 605 in its base with 8 μm pores 606 extending therethrough.
Cells 607 were plated at a density of 2×10^4/ml on the filter membrane 605 and placed under a growth medium 608 containing 1% foetal bovine serum (FBS). A chemotactic gradient was created across the filter membrane 605 by placing growth medium 609 containing 10% FBS in the lower section 604 of the chamber.
Cells were allowed to migrate across the filter membrane 605 over a period of 24 hours, cells migrating and adhering to the underside of the filter membrane 605.
At the end of each assay, non-migrated cells were removed from the upper surface of the insert 602 with two different swabs
(§1) The number of cells migrating to the underside of the insert 602 was determined using crystal violet staining. Migrated cells were fixed for 15 minutes with ice-cold methanol. Then 0.5% crystal violet (in 25% methanol) was added for 15 minutes. The inserts were swabbed again and then washed in water and allowed to dry. Cells were then counted using twelve separate fields of view per insert (×200 magnification).
(§2) With the exception of single cell adhesion tests, which are discussed in the following paragraph, experiments were carried out under either; • (i) normal normoxic conditions ([…], 5% carbon dioxide), or • (ii) following 24 hours hypoxic pre-treatment (2% O2, 5% CO2, 93% N2) continued during the assays.

[2] = tested on: MDA-MB-231 cells; assay: Cell growth (proliferation) assay (MTT); assay type: cell-based, human; settings: for PROLIFERATION (24 hours) / growth (number of cells): Normoxia; for growth (number of cells): 48 hours
Description: Cells were plated at 2×10^4 cells/ml in 24-well plates (Becton-Dickinson) and allowed to settle overnight. The cells were then treated for the required time of incubation (24 hours+), with medium changes every 24 hours. At the end of the treatment, the medium was removed, and this was followed by the colorimetric 3-[4,5-dimethylthiazol-2-yl]-2,5-diphenyltetrazolium bromide (MTT) assay (Grimes et al., 1995). Briefly, 0.1 ml MTT (5 mg/ml made up in the growth medium) and 0.4 ml growth medium was added in each well and the plate was incubated for 3-4 hours at 37° C. The medium was then removed from the chambers and replaced with 0.5 ml dimethyl sulfoxide (DMSO) and 0.063 ml glycine buffer (0.1 M glycine and 0.1 M NaCl; pH 10.5). Absorbance at 570 nm was determined 15 minutes after the addition of the glycine buffer. Results were calculated as means of nine repeats of each of the treatment vs. control spectrophotometer readings from individual invasion wells.
as §2

[3] = tested on: MDA-MB-231 cells; assay: Cell viability assay (trypan blue); assay type: cell-based, human; settings: Normoxia, 48 hours
Description: (§3) Cells were seeded at a density of 5×10^4 cells/ml in 35 mm Falcon tissue culture dishes. After treatment with a given drug, the medium was removed and replaced with 800 μl of growth medium and 200 μl 0.4% trypan blue (Sigma, Dorset, UK) and incubated for 10 minutes in the incubator. The trypan blue was removed and the cells were washed once with 3 ml growth medium. For each treatment, cells from 30 random fields of view were counted under 100× magnification. The number of dead cells, stained blue, was counted in each field of view. The data were expressed as percentages of living cells out of the total number of cells in given fields of view. The percentages were averaged and differences between control and treatment were compared from at least three independent experiments.
as §2

[4] = tested on: Mat-LyLu cells; assay: Invasion assay (Matrigel Transwell); assay type: cell-based, rat
Description: This assay is an extension of the transverse migration assay described above. To “invade”, the cells need both (i) to move as in the transverse migration assay and (ii) secrete a proteolytic enzyme to digest their surroundings. The ability of cells to invade neighbouring tissues by enzyme secretion was therefore assessed by using a layer of Matrigel™ (BD Biosciences) spread across the porous membrane of a Transwell® insert.
FIG. 7 is a schematic side sectional view of an invasion chamber 701 having a Transwell® insert 702 separating the chamber into upper 703 and lower 704 sections. The insert 702 has a migration filter membrane 705 in its base with 8 μm pores 706 extending therethrough. A layer 707 of Matrigel™ is shown coating the filter membrane 705.
Cells 708 were plated at a density of 2×10^4/ml onto the Matrigel™ layer 707 in 24-well plates (Becton-Dickinson) according to the manufacturers' instructions. 50 μl Matrigel™ was seeded at a 1:7 dilution (10 mg/ml stock) onto the inserts and left overnight. Prior to seeding with the cells the Matrigel™ was rehydrated using medium with no additions. This medium was removed prior to seeding the cells.
Cells were plated in a 1-5% FBS chemotactic gradient overnight (12 hours). The nutrient concentration in the medium 709 in the upper section 703 of the chamber was less than the concentration of nutrient in the medium 710 in the lower section 704 to induced movement of the cells through the Matrigel™ layer 707 and through the pores 706 to the underside of the filter membrane 705. At the end of each assay, non-invaded/non-migrated cells were removed from the upper surface of the insert 702 with two different swabs.
as §1, with “invading” for “migrating”, “702” for “602”, “Invaded” for “Migrated”, “magnification). If the difference in the average number of cells invading the two control inserts was more than 40%, the experiment was rejected.” for “magnification).”
as §2

[5] = tested on: Mat-LyLu cells; assay: Cell viability assay (trypan blue); assay type: cell-based, rat
Description: as §3, §2

[6] = Hypoxia, 1 μM, listed as RILUZOLE
[7] = Normoxia, 1 μM, listed as RILUZOLE

## COc1ccccc1OCC(O)CN1CCN(CC(=O)Nc2c(C)cccc2C)CC1 (centres unmarked) [ranolazine]
[1]; Hypoxia, 1 μM
  TRANSVERSE MIGRATION: reduced the transverse migration of the cells in a statistically significant way
[1]; Hypoxia, 1 μM, listed as RANOLAZINE
  TRANSVERSE MIGRATION: decreased
[1]; Hypoxia, 10 μM
  TRANSVERSE MIGRATION: reduced the transverse migration of the cells in a statistically significant way
[1]; Hypoxia, 10 μM, listed as RANOLAZINE
  TRANSVERSE MIGRATION: decreased
[1]; Hypoxia, 100 μM
  TRANSVERSE MIGRATION: the reduction was not statistically significant
[1]; Hypoxia, 100 μM, listed as RANOLAZINE
  TRANSVERSE MIGRATION: decreased
[1]; Normoxia, 1 μM
  TRANSVERSE MIGRATION: reduced the transverse migration of the cells only slightly
[1]; Normoxia, 1 μM, listed as RANOLAZINE
  TRANSVERSE MIGRATION: increased
[1]; Normoxia, 10 μM
  TRANSVERSE MIGRATION: reduced the transverse migration of the cells only slightly
[1]; Normoxia, 10 μM, listed as RANOLAZINE
  TRANSVERSE MIGRATION: decreased
[1]; Normoxia, 100 μM
  TRANSVERSE MIGRATION: reduced the transverse migration of the cells only slightly
[1]; Normoxia, 100 μM, listed as RANOLAZINE
  TRANSVERSE MIGRATION: decreased
[2]; Hypoxia, same concentrations (1 μM, 10 μM and 100 μM), results not shown
  growth: did not affect the growth
[2]; 1 μM
  PROLIFERATION (24 hours): no significant difference
  growth (number of cells): no statistically significant difference
[2]; 1 μM, listed as RANOLAZINE
  PROLIFERATION (24 hours): no effect
[2]; 10 μM
  PROLIFERATION (24 hours): no significant difference
  growth (number of cells): no statistically significant difference
[2]; 10 μM, listed as RANOLAZINE
  PROLIFERATION (24 hours): no effect
[2]; 100 μM
  PROLIFERATION (24 hours): no significant difference
  growth (number of cells): no statistically significant difference
[2]; 100 μM, listed as RANOLAZINE
  PROLIFERATION (24 hours): no effect
[3]; 1 μM
  CELL VIABILITY: no effect
[3]; 10 μM
  CELL VIABILITY: no effect
[3]; 100 μM
  CELL VIABILITY: no effect
[4]; Hypoxia, 20 μM
  INVASIVENESS (no pretreatment): reduced the migration of the cells in a statistically significant way
[4]; Hypoxia, 20 μM, listed as RANOLAZINE
  INVASIVENESS (no pretreatment): decreased
[4]; Hypoxia, 50 μM
  INVASIVENESS (no pretreatment): reduced the migration of the cells in a statistically significant way
[4]; Hypoxia, 50 μM, listed as RANOLAZINE
  INVASIVENESS (no pretreatment): decreased
[4]; Hypoxia, 300 μM
  INVASIVENESS (no pretreatment): reduced the migration of the cells in a statistically significant way
[4]; Hypoxia, 300 μM, listed as RANOLAZINE
  INVASIVENESS (no pretreatment): decreased
[4]; Normoxia, 20 μM
  INVASIVENESS (no pretreatment): reduced the migration of the cells in a statistically significant way
[4]; Normoxia, 20 μM, listed as RANOLAZINE
  INVASIVENESS (no pretreatment): decreased
[4]; Normoxia, 50 μM
  INVASIVENESS (no pretreatment): reduced the migration of the cells in a statistically significant way
[4]; Normoxia, 50 μM, listed as RANOLAZINE
  INVASIVENESS (no pretreatment): decreased
[4]; Normoxia, 300 μM
  INVASIVENESS (no pretreatment): reduced the migration of the cells in a statistically significant way
[4]; Normoxia, 300 μM, listed as RANOLAZINE
  INVASIVENESS (no pretreatment): decreased
[4]; higher concentrations tested, TTX 1 μM
  potency on invasiveness compared with positive control TTX: more potent than the toxin (TTX)
[5]; Hypoxia, 20 μM, 24 hours
  CELL VIABILITY: no effect
[5]; Hypoxia, 50 μM, 24 hours
  CELL VIABILITY: no effect
[5]; Hypoxia, 300 μM, 24 hours
  CELL VIABILITY: no effect
[5]; Normoxia, 20 μM, 24 hours
  CELL VIABILITY: no effect
[5]; Normoxia, 50 μM, 24 hours
  CELL VIABILITY: no effect
[5]; Normoxia, 300 μM, 24 hours
  CELL VIABILITY: no effect

## Nc1nc2ccc(OC(F)(F)F)cc2s1 [riluzole]
[1]; Hypoxia, 1 μM
  TRANSVERSE MIGRATION: reduced the transverse migration in a statistically significant way
[1]; [6]
  TRANSVERSE MIGRATION: decreased
[1]; Hypoxia, 10 μM
  TRANSVERSE MIGRATION: reduced the transverse migration in a statistically significant way
[1]; Hypoxia, 10 μM, listed as RILUZOLE
  TRANSVERSE MIGRATION: decreased
[1]; Hypoxia, 100 μM
  TRANSVERSE MIGRATION: reduced the transverse migration in a statistically significant way
[1]; Hypoxia, 100 μM, listed as RILUZOLE
  TRANSVERSE MIGRATION: decreased
[1]; Normoxia, 1 μM
  TRANSVERSE MIGRATION: reduced the transverse migration of the cells in a statistically significant way
[1]; [7]
  TRANSVERSE MIGRATION: decreased
[1]; Normoxia, 10 μM
  TRANSVERSE MIGRATION: no effect
[1]; Normoxia, 100 μM
  TRANSVERSE MIGRATION: reduced the transverse migration of the cells in a statistically significant way
[1]; Normoxia, 100 μM, listed as RILUZOLE
  TRANSVERSE MIGRATION: decreased
[2]; 1 μM
  PROLIFERATION (24 hours): no effect
[2]; 10 μM
  PROLIFERATION (24 hours): no effect
[2]; 100 μM
  PROLIFERATION (24 hours): reduced the proliferation of the cells in a statistically significant way
  growth (number of cells): reduced the proliferation of the cells in a statistically significant way
[2]; 100 μM, listed as RILUZOLE
  PROLIFERATION (24 hours): tail off
[3]; 1 μM
  CELL VIABILITY: no effect
[3]; 10 μM
  CELL VIABILITY: decreased the cell viability
[3]; 10 μM, listed as RILUZOLE
  CELL VIABILITY: cell death
[3]; 100 μM
  CELL VIABILITY: decreased the cell viability
[3]; 100 μM, listed as RILUZOLE
  CELL VIABILITY: cell death
[4]; [6]
  INVASIVENESS (no pretreatment): decreased
[4]; Hypoxia, 1 μM, listed as Riluzole
  INVASIVENESS (no pretreatment): significantly inhibited invasiveness
[4]; Hypoxia, 2.5 μM
  INVASIVENESS (no pretreatment): decreased
[4]; Hypoxia, 5 μM
  INVASIVENESS (no pretreatment): decreased
[4]; [7]
  INVASIVENESS (no pretreatment): decreased
[4]; Normoxia, 1 μM, listed as Riluzole
  INVASIVENESS (no pretreatment): significantly inhibited invasiveness
[4]; Normoxia, 2.5 μM
  INVASIVENESS (no pretreatment): decreased
[4]; Normoxia, 5 μM
  INVASIVENESS (no pretreatment): decreased
[5]; Hypoxia, 1 μM
  CELL VIABILITY: no effect
[5]; Hypoxia, 10 μM, 24 h
  CELL VIABILITY: no effect
[5]; Hypoxia, 10 μM, 24 h, listed as RILUZOLE
  CELL VIABILITY: cell death
[5]; Hypoxia, 30 μM, 24 h
  CELL VIABILITY: no effect
[5]; Hypoxia, 30 μM, 24 h, listed as RILUZOLE
  CELL VIABILITY: cell death
[5]; Hypoxia, 100 μM, 24 h
  CELL VIABILITY: no effect
[5]; Hypoxia, 100 μM, 24 h, listed as RILUZOLE
  CELL VIABILITY: cell death
[5]; Normoxia, 10 μM, 24 h
  CELL VIABILITY: no effect
[5]; Normoxia, 30 μM, 24 h
  CELL VIABILITY: no effect
[5]; Normoxia, 100 μM, 24 h
  CELL VIABILITY: no effect
